# Results published in patent US10004754B2, “ANP fragment adjuvant therapy to standard of care (SOC) diuretic treatment” (MADELEINE PHARMACEUTICALS PTY LTD, priority 2014, dated 2018).
# Where no end group is shown, it is not given here.
# Tests used:
# [1] = tested on: patients showing either acute exacerbations of chronic CHF or ADCHF; conditions: cited from earlier work
# [2] = clinical; set-up: species or system human; conditions: in vivo
# [3] = tested on: stable CHF patients; experiment: Renal function (eGFR, plasma creatinine, MAG3 clearance) with sc VSDL infusion, Example 2; format: in vivo, human; conditions: for Plasma Creatinine % Change: given without sign, a decrease; for Plasma Creatinine: baseline 161.7 ± 58; for MAG3 Clearance % change: Post-Treatment vs Pre-Treatment
# Method: (§1) A second study was conducted with a population of eighteen (18) test adult CHF patients, both male and female, in order to further evaluate the improvement in renal and cardiac function in stable CHF patients given VSDL (by sc administration) in addition to standard of care (SOC) treatment.
# (§2) Participants were selected on the basis of the Inclusion and Exclusion criteria given in Example 1. […] In addition, selected patients were required to have a plasma brain natriuretic peptide (BNP) concentration of ≥100 pg/mL and a GFR ≥25 mL/min and <70 mL/min as calculated by the Cockroft Gault calculation (ie moderate renal impairment). On the other hand, the presence of acute MI (ie as indicated by ST elevation and/or elevation of Troponin-T) or evidence of MI or other high risk acute coronary syndrome within the past 6 weeks, hypotension (ie systolic blood pressure (SBP) <90 mmHg), persistent and/or uncontrolled hypertension (SBP>180 mmHg), cardiogenic shock or any other clinical condition that would contraindicate administration of an agent with potent vasodilatory effects, excluded patients from participating in the study. Participants in this study also had standard exclusion criteria that accompany pulmonary artery (SG) catheterisation.
# (§3) The study was an open-label, sequential group, continuous sc infusion study conducted at a single centre. Two steady-state concentration levels (Css) of VSDL were targeted, approximately 10 ng/mL (n=2 lead-in, and n=10, cohort 1) and 20 ng/mL (n=6, cohort 2). The two lead-in patients were treated with similar dose regimens to confirm that the measured plasma concentrations were in agreement with the targeted Css. Two patients from cohort 1 and all 6 patients from cohort 2 underwent pulmonary artery Swan-Ganz (SG) catheterisation to enable haemodynamic monitoring.
# (§4) VSDL prepared as described in Example 1, was administered via sc 6 or 12 hour infusion into the lower abdomen at a maximum volume rate of 350 μL/hr (ie approximately 6 μL/min). The rate of infusion of VSDL for the targeted Css level of 10 ng/mL was either 900 μg/hr (0.3 mL/hr) for 12 hrs or a bimodal infusion of 900 μg/hr for 5 hrs followed by 550 μg/hr (0.18 mL/hr) for 7 hrs. The rate of infusion of VSDL for the targeted Css level of 20 ng/mL was bimodal; 1800 μg/hr (0.20 mL/hr) for 5 hrs followed by 1100 μg/hr (0.12 mL/hr) for 7 hrs (see WO 2014/138796). For the lead-in patients, the infusions were performed at 900 μg/hr for 6 hrs.
# (§5) R Studio (version 4) and GraphPad Prism (GraphPad Software, version 6) were used for all statistical analyses. Statistically significant changes from base line for all parameters were tested using with linear mixed effects model or one-way repeated measures ANOVA with Bonferroni correction. A p value of 0.05 was set for statistically significant differences. All data are reported as mean±s.d or mean (95% CI).
# This change was also accompanied by a 10% decrease in plasma creatinine from 162±58 μmol/L at baseline to […] (p≤0.05) during infusion (Table 6).
# [4] = tested on: stable CHF patients; experiment: Urine output and fractional excretion of sodium with sc VSDL infusion, Example 2; format: in vivo, human
# Method: as §1, §2, §3, §4, §5
sequence,measurement,setting,value
EVVPPQVLSEPNEEAGAALSPLPEVPPWTGEVSPAQR [VSDL],side-effects,"[1]; in vivo, iv",without side-effects
same,"outcomes (eg increased cardiac index, drops in pulmonary capillary wedge pressure and blood pressure)","[1]; iv infusion, even with very low doses, WO 2012/019237",improved outcomes
same,bioavailability,"[2]; both sexes, human, sc",19.2%
same,"CL Maximum Elimination rate, Pop value","[2]; human, sc",26.8 L/h
same,"F Bioavailability, Pop value","[2]; human, sc",26.894%
same,"ETASHARE Random effect scalinmg factor, Pop value",[2],1.000 ratio
same,"RUVADDIV Residual Error (Additive, I.V.), Pop value",[2]; iv,0.248 ng/mL
same,"RUVCVIV Residual Error (Proportional, I.V.), Pop value",[2]; iv,0.336 ratio
same,"FVOL Infused volume on F, Pop value",[2]; sc,1.590 ratio
same,"KA Absorption rate constant, Pop value",[2]; sc,0.625 h⁻¹
same,"LGT Logit F value, Pop value",[2]; sc,−1.00
same,"RUVADDSC Residual Error (Additive, S.C.), Pop value",[2]; sc,0.070 ng/mL
same,"RUVCVSC Residual Error (Proportional, S.C.), Pop value",[2]; sc,0.259 Ratio
same,"V2 S.C. bolus V scaling factor, Pop value",[2]; sc,1.62 ratio
same,"V3 S.C. infusion V scaling factor, Pop value",[2]; sc,3.65 ratio
same,"V Central volume, Pop value",[2]; sc,13.20 L
same,Plasma Creatinine % Change,[3]; >0.5-6 hs vs baseline,(8) %
same,Plasma Creatinine,[3]; >0.5-6 hs,148.5 ± 60 µmol/L
same,Plasma Creatinine % Change,[3]; >6-12 hs vs baseline,(10) %
same,Plasma Creatinine,[3]; >6-12 hs,146 ± 60 µmol/L
same,eGFR and plasma creatinine in relation to plasma concentration of VSDL,[3]; FIGS. 6A and B,improved with rising circulating levels of VSDL
same,"MAG3 Clearance, Post (Pre-Treatment)",[3]; Stage 3A CKD,14 ± 7 ml/min/1.73 m^2
same,MAG3 Clearance % change,[3]; Stage 3A CKD,(9) %
same,MAG3 Clearance,"[3]; Stage 3A CKD, Post-Treatment, Pre-Treatment 148.5 ± 26",162.5 ± 24 ml/min/1.73 m^2
same,"MAG3 Clearance, Post (Pre-Treatment)",[3]; Stage 3B CKD,.3 ± 9 ml/min/1.73 m^2
same,MAG3 Clearance % change,[3]; Stage 3B CKD,(0) %
same,MAG3 Clearance,"[3]; Stage 3B CKD, Post-Treatment, Pre-Treatment 164.5 ± 32",164.8 ± 33 ml/min/1.73 m^2
same,"MAG3 Clearance, Post (Pre-Treatment)",[3]; Stage 4 CKD,17 ± 16 ml/min/1.73 m^2
same,MAG3 Clearance % change,[3]; Stage 4 CKD,(16) %
same,MAG3 Clearance,"[3]; Stage 4 CKD, Post-Treatment, Pre-Treatment 106.0 ± 58",123.3 ± 56 ml/min/1.73 m^2
same,eGFR and MAG3 clearance across all classes of CKD,[3]; adjuvant treatment with VSDL,numerical increases
same,"MAG3 Clearance, Post (Pre-Treatment)",[3]; all patients,9 ± 12 ml/min/1.73 m^2
same,MAG3 Clearance % change,[3]; all patients,(6) %
same,MAG3 Clearance,"[3]; all patients, Post-Treatment, Pre-Treatment 140.3 ± 44",148.9 ± 41 ml/min/1.73 m^2
same,decrease in plasma creatinine,[3]; during infusion vs baseline,10%
same,improvement in eGFR,[3]; during the 12 hour infusion vs baseline,16%
same,estimated glomerular filtration rate (eGFR),"[3]; during the 12 hour infusion, baseline 38±11, p≤0.05",44±14 ml/min/1.73 m^2
same,eGFR % Change,"[3]; eGFR 15-29 (Stage 4 CKD), >0.5-6 hs vs baseline",(23) %
same,eGFR,"[3]; eGFR 15-29 (Stage 4 CKD), >0.5-6 hs, baseline 23.5 ± 5",28.8 ± 10 ml/min/1.73 m^2
same,eGFR,"[3]; eGFR 15-29 (Stage 4 CKD), >6-12 hs, baseline 23.5 ± 5",30 ± 12 ml/min/1.73 m^2
same,eGFR % Change,"[3]; eGFR 30 to 44 (Stage 3B CKD), >0.5-6 hs vs baseline",(12) %
same,eGFR,"[3]; eGFR 30 to 44 (Stage 3B CKD), >0.5-6 hs, baseline 37.7 ± 4",42.3 ± 10 ml/min/1.73 m^2
same,eGFR % Change,"[3]; eGFR 30 to 44 (Stage 3B CKD), >6-12 hs vs baseline",(12) %
same,eGFR,"[3]; eGFR 30 to 44 (Stage 3B CKD), >6-12 hs, baseline 37.7 ± 4",42.3 ± 10 ml/min/1.73 m^2
same,eGFR % Change,"[3]; eGFR 45-59 (Stage 3A CKD), >0.5-6 hs vs baseline",(8) %
same,eGFR,"[3]; eGFR 45-59 (Stage 3A CKD), >0.5-6 hs, baseline 49.8 ± 3",54.0 ± 4 ml/min/1.73 m^2
same,eGFR % Change,"[3]; eGFR 45-59 (Stage 3A CKD), >6-12 hs vs baseline",(14) %
same,eGFR,"[3]; eGFR 45-59 (Stage 3A CKD), >6-12 hs, baseline 49.8 ± 3",56.6 ± 4 ml/min/1.73 m^2
same,"renal function (eGFR, MAG3 clearance, plasma creatinine), trend","[3]; lead-in patients, 900 μg/hr sc for 6 hours",improved renal function
same,eGFR % Change,"[3]; patients with eGFR 15-60, >0.5-6 hs vs baseline",(12) %
same,eGFR,"[3]; patients with eGFR 15-60, >0.5-6 hs, baseline 37.9 ± 11",42.6 ± 13 ml/min/1.73 m^2
same,eGFR % Change,"[3]; patients with eGFR 15-60, >6-12 hs vs baseline",(16) %
same,eGFR,"[3]; patients with eGFR 15-60, >6-12 hs, baseline 37.9 ± 11",43.8 ± 14 ml/min/1.73 m^2
same,MAG3 Clearance,"[3]; post-treatment, pre-treatment 140±44, p≤0.05",149±41 ml/min/1.73 m^2
same,mean urine output,[4]; 10 ng/ml cohort,2898 ± 334 mL
same,FENa (fractional excretion of sodium),"[4]; 10 ng/ml cohort, during infusion, baseline 2.2±0.3%, not statistically significant",3.3±0.8%
same,FENa (fractional excretion of sodium),"[4]; 10 ng/ml cohort, post infusion, baseline 2.2±0.3%",2.3±0.3%
same,mean urine output,[4]; 20 ng/ml cohort,3028 ± 301 mL
same,FENa (fractional excretion of sodium),"[4]; 20 ng/ml cohort, during infusion, baseline 1.6±0.3%",2.4±0.8%
same,FENa (fractional excretion of sodium),"[4]; 20 ng/ml cohort, post infusion, baseline 1.6±0.3%",1.6±0.4%
same,fluid output (urine volumes from baseline),[4]; patients treated with VSDL plus SOC,increased
same,patients with urine volumes above 3 liters/day,"[4]; pooled 10 and 20 ng/ml patients, FIG. 2",more than 50%
